The values below come from US9956426B2, “Upconverting nanoparticles” (priority 2015, dated 2018).

Series [1] has as its system HeLa cells. To be noted: 100 μg/mL, CW 980 nm 0.35 W/cm^2. How it is done:
As a model to examine the efficacy of 5-aminolevulinic acid-conjugated upconverting particles as described herein, particles prepared as described herein (having an 80 mol % Yb content), a 3-(4,5-dimethylthiazol-2-yl)-2,5-diphenyltetrazolium bromide (MTT) proliferation assay was conducted to determine inhibition of cell proliferation using photodynamic therapy with the nanoparticles prepared as described herein. In the cell proliferation assay, HeLa cells were exposed to 5-aminolevulinic acid-conjugated upconverting particles and various controls (all 100 μg/mL) for 4 h and the cells were then irradiated by irradiation of continuous wave 980 nm light at 1 W/cm^2. The results of the assay are shown in FIG. 8, which depicts cell viability as a function of irradiation time.
Then, impact of the lanthanide-doped upconverting nanoparticles on 5-ALA-induced photodynamic therapy was evaluated. […] Cells exposed to these control nanoparticles were irradiated at a biocompatible low power density of 0.35 W/cm^2.
A 96-well microtiter plate seeded with 1×10^4 HeLa cells/well was incubated overnight at 37° C. with 5% CO2. Cells were subsequently exposed to (i) 5-aminolevulinic acid functionalized upconverting nanoparticles comprising 80 mol % ytterbium (ALA-UCNPs, 100 μg/mL), (ii) hydrazide functionalized upconverting nanoparticles (no 5-ALA) (Hyd-UCNPs, 100 μg/mL), (iii) free 5-aminolevulinic acid (ALA, 100 μg/mL) or (iv) PBS (growth medium control) and then irradiated with CW 980 nm laser diode at 1 W/cm^2 for 0, 5, 10, or 20 min. After overnight incubation, cells were labeled with 12 mM solution of MTT in PBS for 4 h. Finally, the media was aspirated and replaced with 50 μL DMSO and cell viability was quantified by formazan absorption determined by a plate reader at 540 nm.
FIG. 8: Plots showing the viability of HeLa cells irradiated with CW 980 nm light at 1 W/cm^2 power density.
FIG. 9: Plots showing the viability of HeLa cells irradiated with CW 980 nm light at 0.35 W/cm^2 power density. […]

Series [2] can be described thus: 5-Aminolevulinic acid loading determination by HPLC. It is filed as physicochemical. To be noted: HPLC of supernatants, back-calculation. An excerpt: FT-IR spectral analysis confirmed that the conjugation of 5-ALA to the nanoparticles was via a hydrazone linkage as shown in panels (d) and (e) of FIG. 7, which show (d) full and (e) detailed spectra for polyacrylic acid-coated upconverting nanoparticles, (PAA-UCNPs), hydrazide-functionalized upconverting nanoparticles (Hyd-UCNPs) and 5-ALA-conjugated upconverting nanoparticles. On the spectrum for Poly(acrylic) acid-functionalized UCNPs (PAA-UCNPs), the peak at 1636 cm^−1 is attributed to the resonance of the carboxyl groups. […]
FT-IR spectra were recorded on a Nicolet Nexus FT-IR spectrometer, using the SMART iTR™ for ATR measurements. The upconversion photoluminescence spectra were measured by a SPEX FluoroMax®-3 spectrofluorimeter (Horiba) (spectral resolution of 1 nm, emission slit of 5 nm, and integral period of 0.1 s) excited at 980 nm using a fiber-coupled laser diode introduced to the sample chamber of the spectrofluorimeter. […] The size distribution of the samples was determined by dynamic light scattering (DLS) equipped with a Zetasizer Nano-ZS (He—Ne laser wavelength at 633 nm) and an auto-titrator (Malvern Instruments, Malvern, UK). The absorbance for the MTT experiment and the fluorescence for DCFDA staining experiment was found using a microplate reader (Molecular Devices Co., Menlo Park, Calif.). […]

On to “β-NaYF4:Yb(20%),Er(2%)@β-NaYF4 ALA [reference compound]”, for which, in series [1], the cell killing result is “no cell killing”. The “loading capacity for 5-ALA” value in series [2] was roughly 4.5 µmol/mg.
